Assay results as given in patent US20050192314A1, “Urea derivatives as C-kit modulators” (Ambit Biosciences Corporation, priority 2003, published 2005).
pKd: −log10 of the molar value.

Biological target: T1, KIT(DKIN) (Homo sapiens, UniProt P10721)
T1 construct: KIT(DKIN); made in house
Test: Binding constant (Kd) measurement, phage-displayed kinase competition binding assay: KIT(DKIN)
Text: The term “ND” represents non-determined values.

T1 sequence (P10721 589-937 limits assumed): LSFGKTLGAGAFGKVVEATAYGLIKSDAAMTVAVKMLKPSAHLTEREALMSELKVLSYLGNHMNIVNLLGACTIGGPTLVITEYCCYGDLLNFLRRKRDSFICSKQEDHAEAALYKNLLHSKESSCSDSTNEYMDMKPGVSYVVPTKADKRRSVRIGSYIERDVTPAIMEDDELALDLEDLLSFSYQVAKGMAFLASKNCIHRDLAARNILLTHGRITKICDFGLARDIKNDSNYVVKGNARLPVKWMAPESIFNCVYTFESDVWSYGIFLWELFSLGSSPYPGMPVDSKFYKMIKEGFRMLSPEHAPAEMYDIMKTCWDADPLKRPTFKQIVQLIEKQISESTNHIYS

| SMILES | pKd |
| --- | --- |
| Cn1c(SCC(=O)Nc2ccc(NC(=O)Nc3cc(C(C)(C)C)on3)cc2)nnc1-c1cccn(Cc2ccccc2)c1=O [Compound Z47] | 6.00 to 7.00 |
| C/C=C/C(=O)Nc1ccc(NC(=O)Nc2cc(C(C)(C)C)on2)cc1 [Compound N93] | 5.00 to 6.00 |
| Cc1ncccc1C(=O)Nc1ccc(NC(=O)Nc2cc(C(C)(C)C)on2)cc1 [Compound N145] | 6.00 to 7.00 |
| Cn1nc(-c2ccccc2)c2cc(C(=O)Nc3ccc(NC(=O)Nc4cc(C(C)(C)C)on4)cc3)sc21 [Compound N5] | 6.00 to 7.00 |
| CCOc1ccc(NC(=O)Nc2cc(C(C)(C)C)on2)cc1 [Compound G20] | > 7.00 |
| CC1CN(CCOc2ccc(NC(=O)Nc3cc(C(C)(C)C)on3)cc2)CCN1 (stereo not drawn) [Compound G46] | < 5.00 |
| Cn1nc(C(C)(C)C)cc1C(=O)Nc1ccc(NC(=O)Nc2cc(C(C)(C)C)on2)cc1 [Compound N10] | 6.00 to 7.00 |
| COc1ccc(NC(=O)Nc2cc(C(C)(C)C)no2)cc1 [Compound A30] | 6.00 to 7.00 |
| CC(C)(C)c1cc(NC(=O)Nc2ccc(NC(=O)c3cc([N+](=O)[O-])ccn3)cc2)no1 [Compound N7] | > 7.00 |
| Cc1cc(C)n(C(=O)Nc2ccc(Cl)cc2)n1 [Compound Z52] | < 5.00 |
| CC(C)(C)OC(=O)Nc1ccc(NC(=O)Nc2cc(C(C)(C)C)on2)cc1 [Compound N101] | 6.00 to 7.00 |
| CC(C)(C)c1cc(NC(=O)Nc2ccc(OCc3ccc(OC(F)(F)F)cc3)cc2)no1 [Compound G5] | 6.00 to 7.00 |
| CC(C)(C)c1cc(NC(=O)Nc2ccc(-c3nc(-c4cccc5ccccc45)no3)cc2)no1 [Compound P5] | 5.00 to 6.00 |
| COc1nc(C)cc(C)c1C(=O)Nc1ccc(NC(=O)Nc2cc(C(C)(C)C)on2)cc1 [Compound N22] | 5.00 to 6.00 |
| CC(C)(CO)c1cc(NC(=O)Nc2ccc(Cl)cc2)on1 [Compound A22] | 5.00 to 6.00 |
| COC(=O)c1cccc(COc2ccc(NC(=O)Nc3cc(C(C)(C)C)on3)cc2)c1 [Compound G7] | 6.00 to 7.00 |
| CC(C)(C)c1cc(NC(=O)Nc2ccc(CCc3ccc(N)cc3)cc2)no1 [Compound A3] | > 7.00 |
| CC(C)(C)c1cc(NC(=O)Nc2ccc(NC(=O)c3cccc(O)n3)cc2)no1 [Compound N131] | > 7.00 |
| CC(C)(C)c1cc(NC(=O)Nc2ccc(NC(=O)c3c4ccccc4nc4ccccc34)cc2)no1 [Compound N148] | 5.00 to 6.00 |
| CC(C)(C)c1cc(NC(=O)Nc2ccc(C(N)=O)cc2)no1 [Compound N86] | 6.00 to 7.00 |
| COc1ccc(-c2noc(-c3ccc(NC(=O)Nc4cc(C(C)(C)C)on4)cc3)n2)c2ccccc12 [Compound P3] | 5.00 to 6.00 |

| SMILES | pKd |
| --- | --- |
| CC(C)(C)c1cc(NC(=O)Nc2ccc(NC(=O)c3ccc4cccnc4n3)cc2)no1 [Compound N144] | 6.00 to 7.00 |
| CC(C)(C)c1cc(NC(=O)Nc2ccc(-c3nc(-c4ccc(Cl)cc4)no3)cc2)no1 [Compound P7] | 6.00 to 7.00 |
| Cc1ccc(NC(=O)c2ccc(NC(=O)Nc3cc(C(C)(C)C)on3)cc2)cc1 [Compound N84] | > 7.00 |
| CSc1ncc(Br)c(C(=O)Nc2ccc(NC(=O)Nc3cc(C(C)(C)C)on3)cc2)n1 [Compound N114] | 6.00 to 7.00 |
| CC(C)(C)c1cc(NC(=O)Nc2ccc(NC(=O)c3cccc4cccnc34)cc2)no1 [Compound N115] | > 7.00 |
| Cc1nn(C)c(Cl)c1C(=O)Nc1ccc(NC(=O)Nc2cc(C(C)(C)C)on2)cc1 [Compound N116] | 6.00 to 7.00 |
| COc1ccc(NC(=O)Nc2cc(C(C)(C)C)on2)cc1 [Compound A29] | 5.00 to 6.00 |
| COC(=O)c1ccc(C(=O)Nc2ccc(NC(=O)Nc3cc(C(C)(C)C)on3)cc2)nc1 [Compound N113] | > 7.00 |
| COc1ccc(-c2cc(C(=O)Nc3ccc(NC(=O)Nc4cc(C(C)(C)C)on4)cc3)c(C)o2)cc1 [Compound N118] | 5.00 to 6.00 |
| COc1cccc(CNC(=O)Nc2cc(C(C)(C)C)on2)c1 [Compound B3] | 5.00 to 6.00 |
| CC(C)(C)c1cc(NC(=O)Nc2ccc(NC(=O)c3cc4cc(Br)ccc4s3)cc2)no1 [Compound N17] | 6.00 to 7.00 |
| Cn1nc(C(C)(C)C)cc1NC(=O)Nc1ccc(OCc2ccccc2)cc1 [Compound H2] | 6.00 to 7.00 |
| CC(C)(C)c1cc(NC(=O)Nc2ccc(NC(=O)Cc3csc4ccccc34)cc2)no1 [Compound N107] | 5.00 to 6.00 |
| CSc1ccc(NC(=O)Nc2cc(C(C)(C)C)no2)cc1 [Compound A39] | 6.00 to 7.00 |
| CC(C)(C)c1cc(NC(=O)Nc2ccc(OCCc3ccncc3)cc2)no1 [Compound G22] | > 7.00 |
| CC(C)(C)c1cc(NC(=O)Nc2ccc(OCc3ccc(F)cc3)cc2)no1 [Compound G35] | > 7.00 |
| Cc1ccc(-c2cc(C(=O)Nc3ccc(NC(=O)Nc4cc(C(C)(C)C)on4)cc3)c(C)o2)cc1 [Compound N120] | 5.00 to 6.00 |
| Cc1ccc(S(=O)(=O)Nc2ccc(NC(=O)Nc3cc(C(C)(C)C)on3)cc2)cc1 [Compound V2] | 5.00 to 6.00 |
| COc1ccc(N(C)C(=O)Nc2cc(C(C)(C)C)on2)cc1 [Compound J10] | 6.00 to 7.00 |
| CC(C)(C)c1cc(NC(=O)Nc2ccc(NC(=O)c3csnn3)cc2)no1 [Compound N14] | 6.00 to 7.00 |
| C=C/C(=C\C=C\Cl)NC(=O)Nc1ccc(C(=O)OCCOC)cc1 [Compound Z54] | 5.00 to 6.00 |

| SMILES | pKd |
| --- | --- |
| CC(C)(C)c1cc(NC(=O)Nc2ccc(NC(=O)c3ccccc3)cc2)no1 [Compound N34] | 6.00 to 7.00 |
| CC(C)(C)c1cc(NC(=O)Nc2ccc(OCc3ccccc3)cc2)no1 [Compound G31] | > 7.00 |
| CC(C)(C)c1cc(NC(=O)Nc2ccc(OCc3c(Cl)cccc3Cl)cc2)no1 [Compound G19] | 6.00 to 7.00 |
| Cc1ccncc1C(=O)Nc1ccc(NC(=O)Nc2cc(C(C)(C)C)on2)cc1 [Compound N104] | 6.00 to 7.00 |
| Cc1cccnc1-c1noc(-c2ccc(NC(=O)Nc3cc(C(C)(C)C)on3)cc2)n1 [Compound P4] | 6.00 to 7.00 |
| COc1ccc(NC(=O)Nc2cc(C(F)(F)F)cc(Cl)n2)cc1 [Compound Z71] | 6.00 to 7.00 |
| Cn1cc(C(=O)Nc2ccc(NC(=O)Nc3cc(C(C)(C)C)on3)cc2)c(C(F)(F)F)n1 [Compound N20] | 6.00 to 7.00 |
| Cn1nc(C2CC2)cc1NC(=O)Nc1ccc(OCc2ccccc2)cc1 [Compound H7] | < 5.00 |
| Cc1nccn1CCOc1ccc(NC(=O)Nc2cc(C(C)(C)C)on2)cc1 [Compound G51] | 6.00 to 7.00 |
| Cc1ccc(-n2nc(C(C)(C)C)cc2NC(=O)Nc2cc(C(C)(C)C)on2)cc1 [Compound H11] | < 5.00 |
| O=C(Nc1ccccc1)Nc1ccc(-n2cnc(Cl)c2Cl)cc1 [Compound Z65] | 5.00 to 6.00 |
| CC(C)(C)c1cc(NC(=O)Nc2ccc(NC(=O)c3cn4cc(Cl)ccc4n3)cc2)no1 [Compound N3] | > 7.00 |
| CC(C)(C)c1cc(NC(=O)Nc2ccc(NC(=O)c3ccncc3)cc2)no1 [Compound N167] | 6.00 to 7.00 |
| Cn1cc(C(=O)Nc2ccc(NC(=O)Nc3cc(C(C)(C)C)on3)cc2)c2ccccc21 [Compound N119] | 6.00 to 7.00 |
| CC(C)(C)c1cc(NC(=O)Nc2ccc(OCc3ccc(-c4ccccc4)cc3)cc2)no1 [Compound G56] | 6.00 to 7.00 |
| CC(C)(C)c1cc(NC(=O)Nc2ccc(C(=O)Nc3ccc(Cl)cc3)cc2)no1 [Compound N156] | 5.00 to 6.00 |
| CC(C)(C)c1cc(NC(=O)Nc2ccc(NC(=O)c3ccccc3Cl)cc2)no1 [Compound N23] | > 7.00 |
| CC(C)(C)c1cc(NC(=O)Nc2ccc(NC(=O)c3cnc4ccccc4c3)cc2)no1 [Compound N108] | 6.00 to 7.00 |
| COc1cccc(-c2ccc(C(=O)Nc3ccc(NC(=O)Nc4cc(C(C)(C)C)on4)cc3)o2)c1 [Compound N105] | 6.00 to 7.00 |
| CC(C)(C)c1cc(NC(=O)Nc2ccc(NC(=O)Cc3ccccc3)cc2)no1 [Compound N35] | 6.00 to 7.00 |
| CC(C)(C)c1cc(NC(=O)Nc2ccc(OCc3ccc(C(=O)c4ccccc4)cc3)cc2)no1 [Compound G9] | 6.00 to 7.00 |

| SMILES | pKd |
| --- | --- |
| Cc1ccc(-n2nc(C(C)(C)C)cc2NC(=O)Nc2ccc(OCc3ccccc3)cc2)cc1 [Compound H5] | < 5.00 |
| CSc1ccc(NC(=O)Nc2cc(C(C)(C)C)on2)cc1 [Compound A37] | 6.00 to 7.00 |
| CC(C)(C)c1cc(NC(=O)Nc2ccc(NC(=O)c3cnc4ccccc4n3)cc2)no1 [Compound N149] | 5.00 to 6.00 |
| CC(C)(C)c1cc(NC(=O)Nc2ccc(NC(=O)c3ccnc4ccccc34)cc2)no1 [Compound N141] | 6.00 to 7.00 |
| CC(C)(C)c1cc(NC(=O)Nc2ccc(CCc3ccccc3)cc2)no1 [Compound A15] | 6.00 to 7.00 |
| CC1CCCN(CCOc2ccc(NC(=O)Nc3cc(C(C)(C)C)on3)cc2)C1 (stereo not drawn) [Compound G44] | < 5.00 |
| CC1CN(CCOc2ccc(NC(=O)Nc3cc(C(C)(C)C)on3)cc2)CC(C)O1 (stereo not drawn) [Compound G42] | 5.00 to 6.00 |
| CC(C)(C)c1cc(NC(=O)Nc2ccc(OCCN3CCOCC3)cc2)no1 [Compound G40] | 5.00 to 6.00 |
| CC(C)(C)c1cc(NC(=O)Nc2ccc(Oc3ccccc3)cc2)no1 [Compound A24] | 6.00 to 7.00 |
| CC(C)(C)c1cc(NC(=O)Nc2ccc(Cl)cc2Cl)no1 [Compound A7] | 5.00 to 6.00 |
| CC(C)(C)c1cc(NC(=O)Nc2ccc(OCc3cccc(F)c3)cc2)no1 [Compound G14] | 6.00 to 7.00 |
| CNC(=O)c1ccc(NC(=O)Nc2cc(C(C)(C)C)on2)cc1 [Compound N85] | 6.00 to 7.00 |
| CC(C)(C)c1cc(NC(=O)Nc2ccccc2)no1 [Compound A2] | 6.00 to 7.00 |
| Cc1sc(NC(=O)Nc2ccc(Cl)cc2)c(C(N)=O)c1C [Compound Z58] | 6.00 to 7.00 |
| Cn1nc(C(C)(C)C)cc1NC(=O)Nc1cccc([N+](=O)[O-])c1 [Compound D21] | < 5.00 |
| CC(C)(C)c1cc(NC(=O)Nc2ccc(OC/C=C/c3ccccc3Cl)cc2)no1 [Compound G26] | 6.00 to 7.00 |
| CC(C)(C)c1cc(NC(=O)Nc2ccncc2)no1 [Compound A53] | 5.00 to 6.00 |
| COc1cc(NC(=O)Nc2cc(C(C)(C)C)no2)cc(OC)c1OC [Compound A49] | 6.00 to 7.00 |
| CC(C)(C)c1cc(NC(=O)Nc2ccc(N)cc2)no1 [Compound C1, 1-(5-tert-butylisoxazol-3-yl)-3-(4-aminophenyl)urea] | 5.00 to 6.00 |
| O=C(Nc1ccc(Cl)cc1)Nc1ccc(-n2nc(Br)c(Br)c2Br)cc1 [Compound Z49] | 6.00 to 7.00 |
| CC(C)(C)c1cc(NC(=O)Nc2ccc(OCc3ccc(F)cc3Cl)cc2)no1 [Compound G18] | 6.00 to 7.00 |
